Results published in patent US9994566B2, “Compound of 5-hydroxyl-1,7-naphthyridine substituted by aryl or heteroaryl, preparation method thereof and pharmaceutical use thereof” (SHENYANG SUNSHINE PHARMACEUTICAL CO. LTD., priority 2015, dated 2018).
“And” between values parts separate entries of the source, which are not always exact repeats. Equal entries are not always repeated.

Tests used:
[1] = system: male Balb/c mice; test: Effect on increasing erythrocyte of normal mice: reticulocyte (RETIC) count; assay type: in vivo; details: four hours after the last administration; for RETIC, individual mice (Mice No. 1-8): one value per mouse; for RETIC, Average: orbital blood
Procedure: Biological Example 3: Effect of the Compounds of the Present Invention on Increasing Erythrocyte of Normal Mice
80 male Balb/c mice were divided into 11 groups, with 8 animals for each drug group, 10 animals for blank control group. Drug group: AKB-6548, 100 mg/kg, oral administration, once a day×3; FG-4592, 25 mg/kg, oral administration, once a day×3; EPO, 100 IU/kg, Day 1 and Day 3, subcutaneous injection, as positive control groups. Each of the compounds of the present invention was orally administrated at 25 mg/kg, once a day×3. Four hours after the last administration, orbital blood of all animals were collected and treated with EDTA-K2 anticoagulant, and reticulocytes (RETIC) were counted with a blood cell automated analyzer.

[2] = system: hepatoma cells Hep3B; test: Promotion of erythropoietin (EPO) expression in hepatoma cells Hep3B in vitro (ELISA); assay type: cell-based, Human; details: Hep3B supernatant, 24 hours, test doses 100 μmol/L and 10 μmol/L (dose of the tabulated value not given)
Excerpt: Biological Example 1: Development and Screening of In Vitro Detection Methods: Promotion of Erythropoietin Expression in Hepatoma Cells Hep3B In Vitro by HIF-PHD2 Inhibitor Compounds
The complete medium for culture of Experimental hepatoma cells Hep3B (China Center for Type Culture Collection, CCTCC) was MEM (Cat# GNM 41500, GIBCO, provided by Hangzhou Genom Biopharmaceutical Technology Co., Ltd) supplemented with 10% serum FBS (Cat#10099-141, GIBCO) and 1% P/S (Cat#GNM15140, provided by Hangzhou Genom Biopharmaceutical Technology Co., Ltd). Cells were cultured in a 37° C., 5% CO2 incubator. Experimental reagents included dimethyl sulfoxide (for molecular biology, >=99.9%, Catalog # D8418) purchased from Sigma. The ELISA kit was purchased from Quantikine IVD ELISA, Human Erythropoietin (R&D, DEP00). The test control AKB-6548 was prepared by the inventors or obtained by commercial purchase. The test substance was stored at −20° C. in the dark.
The test substance and the positive control substance were fully dissolved in sterile water or dimethylsulfoxide under dark conditions and prepared into a stock solution at a concentration of 10^−1 mol/L or 10^−2 mol/L. Each of the stock solutions was stored at −20° C. MEM medium containing 0.5% FBS was used as a diluent to dilute the stock solution of the test substance, to prepare a diluted test substance at a concentration of 100 μmol/L and 10 μmol/L. To a 96-well culture plate was added 200 μl/well (1.5 or 2.0×10^4 cells/well) of hepatoma cells Hep3B complete medium suspension and incubated overnight at 37° C. in a 5% CO2 incubator. The solution in the 96-well culture plate was removed and the cells were washed once with the MEM medium containing 0.5% FBS. 200 μl/well of the test substance was added in the dark, at a dose of 100 μmol/L and 10 μmol/L, and each dose set 2 wells, a test well and a spare well. A cell control well was prepared by replacing the test solution with the diluent (without test substance and solvent). A solvent control well was prepared by replacing the test solution with the diluent containing the corresponding concentration of solvent (dimethylsulfoxide) (without test substance). They were cultured in a 5% CO2 incubator at 37° C. for 24 hours. The supernatant was absorbed as a sample and cryopreserved at −20° C. for use. 100 μl/well of stop solution was added. OD value was detected by microplate reader A450 nm-A600 nm. The expression level of EPO (mIU/mL) promoted by the test substance was obtained according to the standard curve.

[3] = target: HIF Prolyl hydroxylases 2 (PHD2) (Homo sapiens, UniProt Q9GZT9); test: PHD2 inhibition, fluorescence polarization (FP) detection of HIF-1α / VBC complex interaction; assay type: biochemical; details: PHD2 0.5 μg/μl, FAM-HIF (556-575) 1 μM, 30 minutes room temperature
Procedure: The interaction between hypoxia-inducible factor HIF-1α and VBC complex (von Hippel-Lindau protein-Elongin B-Elongin C, VBC) was detected by Fluorescence polarization (FP) method, to measure the enzyme inhibitory activity of the HIF Prolyl hydroxylases 2 (PHD2) inhibitor compounds.
Subsequently, the desired concentration of the test compound or the positive compound was added (the compound was replaced by the buffer in the negative control and the positive control). Finally, PHD2 was added at a final concentration of 0.5 μg/μl (PHD2 was replaced by the buffer in the negative control). They were mixed well and allowed to stand at room temperature for 30 minutes in the dark followed by 95° C. water bath for 1 minute, and then the reaction was terminated. After the temperature drops to room temperature, the sample was prepared well for use. EBC buffer (50 mM Tris.HCl, 120 mM NaCl, 0.5% NP-40) was added to the corresponding wells of a black 96-well test plate. A GST-VBC complex was added to the corresponding test wells at a final concentration of 300 nM (using the wells containing only EBC buffer as blank wells). Subsequently, the corresponding PHD2 prolyl hydroxylation reaction sample was added in the dark as a substrate with a final concentration of 100 nM. After mixing well, the lateral and longitudinal fluorescence intensity values were measured using a full-wavelength multifunctional microplate reader (TECAN infinite M1000) at an excitation wavelength of […] and an emission wavelength of 518 nm.
The fluorescence polarization (mP) was calculated: mP=1000×(lateral value−G factor×longitudinal value)/(lateral value+G factor×longitudinal value) wherein, lateral value=lateral fluorescence intensity value of test well−lateral fluorescence intensity value of blank well, longitudinal value=longitudinal fluorescence intensity value of test well−longitudinal fluorescence intensity value of blank well, […]
The IC50 was calculated using the non-linear regression data analysis method of Graphpad Prism 4.0 software ([…]).

[4] = 100 IU/kg, subcutaneous injection, Day 1 and Day 3

Chain of HIF Prolyl hydroxylases 2 (PHD2) (Q9GZT9 whole entry, species assumed): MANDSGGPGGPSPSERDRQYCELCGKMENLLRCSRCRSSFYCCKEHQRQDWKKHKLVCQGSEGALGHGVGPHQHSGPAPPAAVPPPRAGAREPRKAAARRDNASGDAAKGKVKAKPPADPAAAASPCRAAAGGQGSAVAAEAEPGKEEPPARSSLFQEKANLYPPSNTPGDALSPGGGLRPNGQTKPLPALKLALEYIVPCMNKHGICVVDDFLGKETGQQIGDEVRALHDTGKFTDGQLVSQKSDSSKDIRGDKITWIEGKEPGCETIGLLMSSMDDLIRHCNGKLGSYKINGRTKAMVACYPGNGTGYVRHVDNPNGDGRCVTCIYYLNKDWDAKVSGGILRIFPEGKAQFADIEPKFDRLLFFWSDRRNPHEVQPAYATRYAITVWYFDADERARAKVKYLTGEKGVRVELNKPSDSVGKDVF

Molecule | EPO level of the test substance [2] | IC50 [3] | further results
N#Cc1ccc(-c2cnc(C(=O)NCC(=O)O)c(O)c2)cc1 [AKB-6548, reference compound] | 0.13 mIU/mL |  | RETIC, individual mice (Mice No. 1-8) ([1]; 100 mg/kg, oral, once a day × 3, listed as AKB-6548-A): 5.3 (2×) and 6.1 and 4 (2×) and 4.2 (2×) and 4.9; RETIC, Average ([1]; 100 mg/kg, oral, once a day × 3): 4.75
O=C(O)CNC(=O)c1ncc2nc(-c3ccccc3)ccc2c1O [Compound 1] | 0.71 mIU/mL | 18 µM | 
COc1ccc(-c2ccc3c(O)c(C(=O)NCC(=O)O)ncc3n2)cc1 [Compound 2, 2-{5-hydroxy-[2-(4-methoxy)-phenyl]-[1,7]-naphthyridine-6-formamido} acetic acid] | 0.64 mIU/mL | 11 µM | 
Cc1nc(C(=O)NCC(=O)O)c(O)c2ccc(-c3ccc(Cl)cc3)nc12 [Compound 3, 2-{5-hydroxy-[2-(4-chloro)-phenyl]-8-methyl-[1,7]-naphthyridine-6-formamido} acetic acid] | 0.52 mIU/mL | 85 µM | 
COc1cccc(-c2ccc3c(O)c(C(=O)NCC(=O)O)nc(C)c3n2)c1 [Compound 4, 2-{5-hydroxy-[2-(3-methoxy)-phenyl]-8-methyl-[1,7]-napthyridine-6-formamido} acetic acid] | 1.512 mIU/mL | 6.9 µM | 
Cc1nc(C(=O)NCC(=O)O)c(O)c2ccc(-c3cccnc3)nc12 [Compound 5, 2-{5-hydroxy-8-methyl-[2-(3-pyridyl)]-[1,7]-naphthyridine-6-formamido} acetic acid] | 1.89 mIU/mL | 1.7 µM | 
O=C(O)CNC(=O)c1ncc2nc(-c3cccc(Cl)c3)ccc2c1O [Compound 6, 2-{5-hydroxy-[2-(3-chloro)-phenyl]-[1,7]-naphthyridine-6-formamido} acetic acid] | 2.268 mIU/mL | 0.41 µM | RETIC, individual mice (Mice No. 1-8) ([1]; 25 mg/kg, oral, once a day × 3): 5.2 (2×) and 4.8 and 6.3 and 4.7 and 6.4 and 3.9 and 5.4; RETIC, Average ([1]; 25 mg/kg, oral, once a day × 3): 5.24
O=C(O)CNC(=O)c1ncc2nc(-c3ccc(Cl)cc3)ccc2c1O [Compound 8] | 0.68 mIU/mL | 43 µM | 
COc1ccc(-c2ccc3c(O)c(C(=O)NCC(=O)O)nc(C)c3n2)cc1 [Compound 10, 2-{5-hydroxy-8-methyl-[2-(4-methoxy)-phenyl]-[1,7]-naphthyridine-6-formamido} acetic acid] | 0.64 mIU/mL | 63 µM | 
Cc1nc(C(=O)NCC(=O)O)c(O)c2ccc(-c3ccc(C(C)(C)C)cc3)nc12 [Compound 11, 2-{5-hydroxy-8-methyl-[2-(4-tert-butyl)-phenyl]-[1,7]-naphthyridine-6-formamido} acetic acid] | 4.158 mIU/mL | 39 µM | 
Cc1nc(C(=O)NCC(=O)O)c(O)c2ccc(-c3cccc(Br)c3)nc12 [Compound 12, 2-{5-hydroxy-[2-(3-bromo)-phenyl]-8-methyl-[1,7]-naphthyridine-6-formamido} acetic acid] | 4.536 mIU/mL | 4.1 µM | 
O=C(O)CNC(=O)c1ncc2nc(-c3cccc(Br)c3)ccc2c1O [Compound 13, 2-{5-hydroxy-2-(3-bromophenyl)-[1,7]-naphthyridine-6-formamido} acetic acid] | 0.832 mIU/mL | 0.41 µM | 
O=C(O)CNC(=O)c1ncc2nc(-c3cccc4ccccc34)ccc2c1O [Compound 14, [(5-hydroxy-2-(naphthalene-1-yl)-[1,7]naphthyridine-6-carbonyl)-amino]-acetic acid] | 5.435 mIU/mL | 10 µM | RETIC, individual mice (Mice No. 1-8) ([1]; 25 mg/kg, oral, once a day × 3): 4 (3×) and 3.8 and 4.1 and 5.8 and 3.4 and 4.3; RETIC, Average ([1]; 25 mg/kg, oral, once a day × 3): 4.18
CC(C)(C)c1ccc(-c2ccc3c(O)c(C(=O)NCC(=O)O)ncc3n2)cc1 [Compound 16] | 7.046 mIU/mL | 48 µM | 
O=C(O)CNC(=O)c1ncc2nc(-c3ccc(Br)cc3)ccc2c1O [Compound 17, 2-{5-hydroxy-[2-(4-bromo)-phenyl)-[1,7]-naphthyridine-6-formamido} acetic acid] | 7.757 mIU/mL | 20 µM | 
O=C(O)CNC(=O)c1ncc2nc(-c3cccs3)ccc2c1O [Compound 18] | 8.888 mIU/mL | 5.7 µM | 
O=C(O)CNC(=O)c1ncc2nc(-c3ccc4ccccc4c3)ccc2c1O [Compound 19, [(5-hydroxy-2-(naphthalen-2-yl)-[1,7]naphthyridine-6-carbonyl)-amino]-acetic acid] | 9.786 mIU/mL | 7.5 µM | 
O=C(O)CNC(=O)c1ncc2nc(-c3cccc(F)c3)ccc2c1O [Compound 20, 2-{5-hydroxy-[2-(3-fluoro)-phenyl]-[1,7]-naphthyridine-6-formamido} acetic acid] | 10.685 mIU/mL | 0.82 µM | 
Cc1nc(C(=O)NCC(=O)O)c(O)c2ccc(-c3cccc([N+](=O)[O-])c3)nc12 [Compound 21, 2-{5-hydroxy-[2-(3-nitro)-phenyl]-8-methyl-[1,7]-naphthyridine-6-formamido} acetic acid] | 0.325 mIU/mL | 14 µM | 
Cc1nc(C(=O)NCC(=O)O)c(O)c2ccc(-c3ccc(C#N)cc3)nc12 [Compound 22, 2-{5-hydroxy-[2-(4-cyano)-phenyl]-8-methyl-[1,7]-naphthyridine-6-formamido} acetic acid] | 0.53 mIU/mL | 9.3 µM | 
Cc1nc(C(=O)NCC(=O)O)c(O)c2ccc(Oc3ccccc3)cc12 [FG-4592, reference compound] | 0.378 mIU/mL |  | RETIC, individual mice (Mice No. 1-8) ([1]; 25 mg/kg, oral, once a day × 3, listed as FG-4592-A): 3.6 and 3.8 (2×) and 4 (2×) and 3.5 and 4.4 and 3.4; RETIC, Average ([1]; 25 mg/kg, oral, once a day × 3): 3.73
EPO: erythropoietin, glycoprotein hormone; positive control given by subcutaneous injection |  |  | RETIC, individual mice (Mice No. 1-8) [1, 4]: 5 and 5.9 and 2.5 and 2.2 (2×) and 2.6 and 4.3 and 5.1; RETIC, Average [1, 4]: 3.73
